These are literature values, as cited in patent publication US20070087333A1, “Method to detect antigen-specific cytolytic activity” (Erasmus Universiteit Rotterdam, priority 2004, published 2007).

As usually defined, the pEC50 is −log10 of the EC50, conventionally taken in molar units.

The test system of one data set is TCC-C10 CTL clone. The note with it: NP418-426 epitope variants, 51Cr-release assay, reference [2]; read-out: EC50 value of the peptide variant (functional avidity).
For another data set, the system named is TCC3180 CTL clone. The note with it: NP418-426 epitope variants, 51Cr-release assay, reference [2]; for pEC50: read-out: EC50 value of the peptide variant (functional avidity).

pEC50: −log10 of the molar value.

In the case of “NP01: HLA-B*3501 epitope NP418-426 peptide variant of influenza NP strain A/NL/18/94 (LPFEKSTVM; Derived from influenza virus genes encoding NP strain A/NL/18/94 (NP01))”, the pEC50 with TCC-C10 CTL clone is about 9.10; in the data set with TCC3180 CTL clone it was 9.30.
Regarding “NP02: HLA-B*3501 epitope NP418-426 peptide variant of influenza NP strain A/HK/2/68 (LPFDKPTIM; Derived from influenza virus genes encoding NP strain A/HK/2/68 (NP02))”, the pEC50 was under 5.30 in the data set on TCC-C10 CTL clone and 7.59 in the data set on TCC3180 CTL clone.
Consider “NP03: HLA-B*3501 epitope NP418-426 peptide variant of influenza NP strain A/PR/8/34 (LPFDRTTIM; Derived from influenza virus genes encoding NP strain A/PR/8/34 (NP03))”, for which the pEC50 with TCC-C10 CTL clone was under 5.00. Also, the “EC50 value of the peptide variant (functional avidity)” value in the data set with TCC3180 CTL clone is “l lOO”.
